{"source": "ChEMBL document CHEMBL5260858", "about": "“Targeting mycobacterial membranes and membrane proteins: Progress and limitations” (Bioorg Med Chem, 2023)", "key": {"[1]": {"tested_on": "Mycobacterium tuberculosis", "experiment": "Antitubercular activity against Mycobacterium tuberculosis H37Rv ATCC25618 assessed as bacterial growth inhibition incubated for 6 days by resazurin based fluorescence analysis", "assay_type": "functional", "settings": "H37Rv ATCC25618, 144 h, time 6 day"}, "[2]": {"tested_on": "Mycobacterium tuberculosis", "experiment": "Antimycobacterial activity against Mycobacterium tuberculosis H37Rv assessed as bacterial growth inhibition incubated for 6 days by resazurin dye based assay", "assay_type": "functional", "settings": "144 h, time 6 day"}, "[3]": {"tested_on": "Mycobacterium tuberculosis", "experiment": "Antitubercular activity against Mycobacterium tuberculosis H37Rv assessed as bacterial growth inhibition incubated for 6 days by resazurin based fluorescence assay", "assay_type": "functional", "settings": "144 h, time 6 day"}, "[4]": {"tested_on": "Mycobacterium tuberculosis", "experiment": "Antitubercular activity against Mycobacterium tuberculosis H37Rv assessed as bacterial growth inhibition", "assay_type": "functional"}, "[5]": {"tested_on": "Mycobacterium tuberculosis", "experiment": "Antimycobacterial activity against Mycobacterium tuberculosis H37Rv ATCC27294 assessed as bacterial growth inhibition incubated for 7 days by microplate Alamar blue assay", "assay_type": "functional", "settings": "H37Rv ATCC27294, 168 h, time 7 day"}, "[6]": {"tested_on": "Mycobacterium tuberculosis", "experiment": "Antitubercular activity against Mycobacterium tuberculosis MDR_CHUV assessed as bacterial growth inhibition by REMA analysis", "assay_type": "functional"}, "[7]": {"tested_on": "Mycobacterium tuberculosis", "experiment": "Antitubercular activity against Mycobacterium tuberculosis H37Rv assessed as bacterial growth inhibition by REMA analysis", "assay_type": "functional"}, "[8]": {"tested_on": "Mycobacterium tuberculosis", "experiment": "Antitubercular activity against Mycobacterium tuberculosis H37Rv infected in human monocyte macrophage assessed as bacterial growth inhibition and measured after 21 days by colony counting based analysis", "assay_type": "functional", "settings": "504 h, time 21 day"}, "[9]": {"tested_on": "Mycobacterium tuberculosis", "experiment": "Antitubercular activity against Mycobacterium tuberculosis assessed as bacterial growth inhibition", "assay_type": "functional"}, "[10]": {"tested_on": "Mycobacterium tuberculosis", "experiment": "Antitubercular activity against Mycobacterium tuberculosis H37Rv infected in human HepG2 cells assessed as reduction in colony forming unit by CFU analysis", "assay_type": "functional, organism-based"}, "[11]": {"tested_on": "Mycobacterium tuberculosis", "experiment": "Antitubercular activity against Mycobacterium tuberculosis H37Rv ATCC 27294 assessed as bacterial growth inhibition by resazurin microtiter assay", "assay_type": "functional"}, "[12]": {"tested_on": "Mycobacterium tuberculosis", "experiment": "Antitubercular activity against Mycobacterium tuberculosis H37Rv ATCC 27294 infected in mouse J774 cells assessed as intracellular bacterial growth inhibition incubated for by resazurin microtiter assay", "assay_type": "functional"}, "[13]": {"tested_on": "Mycobacterium tuberculosis", "experiment": "Antitubercular activity against Mycobacterium tuberculosis mc2 7000 assessed as bacterial growth inhibition incubated for 6 days by resazurin based fluorescence assay", "assay_type": "functional", "settings": "mc2 7000, 144 h, time 6 day"}, "[14]": {"tested_on": "Mycobacterium tuberculosis", "experiment": "Antitubercular activity against Mycobacterium tuberculosis H37Rv assessed as bacterial growth inhibition by microdilution method", "assay_type": "functional"}, "[15]": {"tested_on": "Mycobacterium tuberculosis", "experiment": "Antitubercular activity against Mycobacterium tuberculosis H37Rv assessed as bacterial growth inhibition and measured upto 14 days by microplate alamar blue assay", "assay_type": "functional", "settings": "336 h, time <= 14 day"}, "[16]": {"tested_on": "Mycobacteroides abscessus", "experiment": "Antitubercular activity against Mycobacterium abscessus CIP104536 assessed as bacterial growth inhibition incubated 3 to 5 days by resazurin based broth microdilution method", "assay_type": "functional", "settings": "time 3-5 day"}, "[17]": {"tested_on": "Mycobacterium tuberculosis", "experiment": "Antitubercular activity against Mycobacterium tuberculosis H37Rv assessed as bacterial growth inhibition incubated for 24 hrs by [14C]-acetate labelling based radiometric analysis", "assay_type": "functional"}, "[18]": {"tested_on": "Mycobacterium tuberculosis", "experiment": "Antitubercular activity against Mycobacterium tuberculosis H37Rv assessed as bacterial growth inhibition incubated for 7 days by resazurin reduction microplate assay", "assay_type": "functional", "settings": "168 h, time 7 day"}, "[19]": {"tested_on": "Mycobacterium tuberculosis", "experiment": "Antitubercular activity against Mycobacterium tuberculosis H37Rv infected in human THP-1 cells assessed as bacterial growth inhibition incubated for 48 hrs by PrestoBlue staining based fluorescence analysis", "assay_type": "functional, organism-based", "settings": "THP-1, 48 h"}, "[20]": {"tested_on": "Mycobacterium tuberculosis", "experiment": "Antitubercular activity against Mycobacterium tuberculosis H37Rv expressing GFP assessed as bacterial growth inhibition by measuring GFP fluorescence incubated for 72 hrs by fluorescence analysis", "assay_type": "functional"}, "[21]": {"tested_on": "Mycobacterium tuberculosis", "experiment": "Antitubercular activity against Mycobacterium tuberculosis H37Rv assessed as bacterial growth inhibition incubated for 6 days by resazurin reduction microplate assay", "assay_type": "functional", "settings": "144 h, time 6 day"}}, "note": "pIC50: −log10 of the molar value.", "data": [{"smiles": "CCCCCc1ccc(NC(=O)COc2cc(C)nc3ccc(OC)cc23)cc1", "values": [{"measurement": "MIC", "setting": "[1]", "result": 0.02, "unit": "µg/mL"}]}, {"smiles": "O=c1nc(N2CCN(S(=O)(=O)c3cccs3)CC2)sc2c([N+](=O)[O-])cc(C(F)(F)F)cc12", "values": [{"measurement": "MIC", "setting": "[2]", "result": 0.004, "unit": "µg/mL"}]}, {"smiles": "CCc1ccc([C@H]2C[C@@H](C(F)(F)F)n3ncc(C(=O)NCc4ccc(OC)cc4)c3N2)cc1", "values": [{"measurement": "MIC", "setting": "[3]", "result": 0.25, "unit": "µM"}]}, {"smiles": "CCCCCCCCn1cc(CN2CCC3(CC2)OCCCO3)c2ccc(OC)cc21", "values": [{"measurement": "MIC50", "setting": "[4]", "result": 0.5, "unit": "µM"}]}, {"smiles": "O=c1nc(N2CCC3(CCN(Cc4ccc(F)cc4)C3)CC2)sc2c([N+](=O)[O-])cc(C(F)(F)F)cc12", "values": [{"measurement": "MIC", "setting": "[5]", "result": "< 0.035", "unit": "µM"}]}, {"smiles": "C[C@H]1COC2(CCN(c3nc(=O)c4cc(C(F)(F)F)cc([N+](=O)[O-])c4s3)CC2)O1", "note": "[BTZ-043]", "values": [{"measurement": "MIC99", "setting": "[6]", "result": 0.002, "unit": "µg/mL"}]}, {"smiles": "CCCCCCCN1CCN(c2nc(=O)c3cc(C(F)(F)F)cc([N+](=O)[O-])c3s2)CC1", "values": [{"measurement": "MIC", "setting": "[7]", "result": 0.00019, "unit": "µg/mL"}]}, {"smiles": "Brc1ccc2[nH]c(CCC3CCCCC3)nc2c1", "values": [{"measurement": "MIC99", "setting": "[8]", "result": 2.44, "unit": "µM"}]}, {"smiles": "O=C1CCc2c(cccc2OC[C@]2(O)CCN(c3c(F)cc(Cl)cc3F)C[C@H]2O)N1", "values": [{"measurement": "MIC", "setting": "[9]", "result": 0.0005, "unit": "µg/mL"}]}, {"smiles": "O=c1nc(N2CC3CN(Cc4ccc(Cl)c(F)c4)CC3C2)sc2c([N+](=O)[O-])cc(C(F)(F)F)cc12", "note": "(configuration not stated)", "values": [{"measurement": "MIC", "setting": "[5]", "result": "< 0.035", "unit": "µM"}]}, {"smiles": "NC(=O)c1cnccn1", "note": "[PYRAZINAMIDE]", "values": [{"measurement": "MIC", "setting": "[4]", "result": 3.12, "unit": "µg/mL"}]}, {"smiles": "COc1ccc(CNc2nc3cc(C(F)(F)F)ccc3nc2C(=O)O)cc1", "values": [{"measurement": "MIC99", "setting": "[7]", "result": 3.1, "unit": "µM"}, {"measurement": "pIC50", "setting": "[10]", "result": 5.60}]}, {"smiles": "CC1(C)CC(=O)C(=CNc2ccccc2O)C(=O)C1", "values": [{"measurement": "MIC90", "setting": "[11]", "result": 7, "unit": "µg/mL"}, {"measurement": "MIC", "setting": "[12]", "result": 8, "unit": "µg/mL"}]}, {"smiles": "O=c1nc(N2CCN(S(=O)(=O)C3CC3)CC2)sc2c([N+](=O)[O-])cc(C(F)(F)F)cc12", "values": [{"measurement": "MIC", "setting": "[2]", "result": 0.003, "unit": "µg/mL"}]}, {"smiles": "COc1ccc(/C=C2/S/C(=N/N=C/c3ccccc3O)NC2=O)cc1", "values": [{"measurement": "MIC90", "setting": "[11]", "result": 1, "unit": "µg/mL"}, {"measurement": "MIC", "setting": "[12]", "result": 4, "unit": "µg/mL"}]}, {"smiles": "Cc1cc2nc(CCC3CCCCC3)[nH]c2cc1C", "values": [{"measurement": "MIC99", "setting": "[8]", "result": 0.145, "unit": "µM"}]}, {"smiles": "CSc1ccc2c(c1)N(CCC1CCCCN1C)c1ccccc1S2", "note": "(configuration not stated) [THIORIDAZINE]", "values": [{"measurement": "MIC", "setting": "[4]", "result": 15, "unit": "µg/mL"}]}, {"smiles": "CNC(=O)c1c(-c2ccccc2)oc2ccc(O)c(CN3CCCCC3)c12", "values": [{"measurement": "MIC", "setting": "[13]", "result": 0.2, "unit": "µM"}]}, {"smiles": "COC(=O)c1c(NC(=O)c2c(F)c(F)c(F)c(F)c2F)sc2c1CCCCC2", "values": [{"measurement": "MIC", "setting": "[14]", "result": 1, "unit": "µM"}]}, {"smiles": "O=c1nc(N2CC3CN(Cc4ccc(OC(F)(F)F)cc4)CC3C2)sc2c([N+](=O)[O-])cc(C(F)(F)F)cc12", "note": "(configuration not stated)", "values": [{"measurement": "MIC", "setting": "[5]", "result": "< 0.035", "unit": "µM"}]}, {"smiles": "Cc1cc(C)c2cc(C(=O)NC3CCCCC3)[nH]c2c1", "values": [{"measurement": "MIC", "setting": "[15]", "result": 0.125, "unit": "µg/mL"}]}, {"smiles": "CCOC(=O)c1c(-c2ccccc2)oc2ccc(O)c(CN3CCCCC3)c12", "values": [{"measurement": "MIC", "setting": "[13]", "result": 0.4, "unit": "µM"}]}, {"smiles": "O=c1nc(N2CCN(CC3CCCCC3)CC2)sc2c([N+](=O)[O-])cc(C(F)(F)F)cc12", "note": "[MACOZINONE]", "values": [{"measurement": "MIC99", "setting": "[4]", "result": 0.003, "unit": "µg/mL"}, {"measurement": "MIC99", "setting": "[6]", "result": 0.0004, "unit": "µg/mL"}]}, {"smiles": "OC1(c2ccc(Cl)c(C(F)(F)F)c2)CCN(Cc2ccccc2I)CC1", "values": [{"measurement": "MIC99", "setting": "[16]", "result": 0.125, "unit": "µg/mL"}]}, {"smiles": "CCc1ccc(NC(=O)COc2cc(C)nc3ccc(OC)cc23)cc1", "values": [{"measurement": "MIC", "setting": "[1]", "result": 0.02, "unit": "µg/mL"}]}, {"smiles": "CCc1ccc([C@H]2C[C@@H](C(F)(F)F)n3ncc(C(=O)NCc4ccc(F)cn4)c3N2)cc1", "values": [{"measurement": "MIC", "setting": "[17]", "result": 0.5, "unit": "µM"}]}, {"smiles": "CCNc1nc(SCC)nc2ccccc12", "values": [{"measurement": "MIC", "setting": "[18]", "result": 0.05, "unit": "µg/mL"}, {"measurement": "IC50", "setting": "[19]", "result": 0.011, "unit": "µg/mL"}]}, {"smiles": "CC(C)/N=c1\\cc2n(-c3ccc(Cl)cc3)c3ccccc3nc-2cc1Nc1ccc(Cl)cc1", "note": "[CLOFAZIMINE]", "values": [{"measurement": "MIC", "setting": "[4]", "result": 0.12, "unit": "µg/mL"}]}, {"smiles": "O=c1nc(N2CCN(CCC3CCCCC3)CC2)sc2c([N+](=O)[O-])cc(C(F)(F)F)cc12", "values": [{"measurement": "MIC", "setting": "[7]", "result": 0.00019, "unit": "µg/mL"}]}, {"smiles": "CC(C)(C)c1ccc(Cn2cnc([N+](=O)[O-])n2)cc1", "values": [{"measurement": "IC90", "setting": "[20]", "result": 500, "unit": "nM"}]}, {"smiles": "O=C(/C=C/c1nccs1)N1CCN(Cc2ccc3c(c2)OCO3)CC1", "values": [{"measurement": "MIC", "setting": "[21]", "result": 0.3, "unit": "µg/mL"}, {"measurement": "IC50", "setting": "[19]", "result": 1.8, "unit": "µg/mL"}]}]}
